Patent US10220022B2, “Compositions and methods employing Wolbachia FtsZ as a target for Albendazole sulfone” (The Regents of the University of California, priority 2011, dated 2019)

How the values were obtained:
[1] = tested on: oocyte microtubule cytoskeleton; test: Immunolabeling of oocyte microtubules; type: in vivo, Drosophila; conditions: immunolabeling of the microtubules, stage 10A oocytes
Text: (§1) Staining: Drosophila Ovary staining was done with PI, anti-tubuli. Drosophila Embryo staining was done with anti-FtsZ. Brugia microfilarial staining was done with PI, anti-tubulin, and anti-FtsZ.
(§2) To address whether Albendazole sulfone acts on Wolbachia by disrupting the oocyte microtubule cytoskeleton, a combination of approaches was used. It has previously been shown that Wolbachia concentrate at the oocyte posterior cortex in a microtubule-dependent manner. […] We also examined the cytoskeleton directly by immunolabeling the microtubules.

Wolbachia = Wolbachia titer in Drosophila oogenesis after drug feeding; type: in vivo; conditions: 24-hour treatment, counts from single oocyte focal planes; DMSO control 225+/−18
Text: (§3) Drug feeding conditions: Fly feeding we done as previously described.
as §1
As Albendazole is already a widely used, FDA-approved drug, we proceeded to test it and the primary metabolites Albendazole sulfoxide and Albendazole sulfone for anti-Wolbachia effects in Drosophila oogenesis. This system provides a high-precision method for assessing Wolbachia titer in a well-characterized developmental context.

beta-tubulin = conditions: relative to Albendazole sulfoxide; cited from earlier work
[2] = tested on: oocyte microtubule cytoskeleton; test: Posterior Wolbachia localization in treated oocytes; type: in vivo; conditions: treated Drosophila oocytes; DMSO controls 95%
Text: as §3, §1, §2

Wolbachia FtsZ = test: FtsZ immunostaining in treated Brugia malayi microfilariae; conditions: compound fed to Brugia malayi microfilariae
Text: as §1
(§4) To investigate whether Albendazole sulfone disrupts Walbachia FtsZ, we fed this compound to Brugia malayi microfilariae, which carry Wolbachia as an essential endosymbiont. […] This is consistent with the predicted benzimidazole susceptibility of B. malayi beta tubulin (FIG. 5).
(§5) In view of the above the inventors posed the questions: By what mechanism does Albendazole sulfone act against Wolbachia FtsZ? And is FtsZ disruption a consequence of host microtubule disassembly, or due to a separate effect on FtsZ by Albendazole sulfone? […] To further test whether Wolbachia FtsZ relies on host microtubules, we also treated Brugia with the microtubule-disrupting drug Colchicine.

B. malayi microtubules = test: Microtubule staining of treated Brugia malayi microfilariae; conditions: compound fed to Brugia malayi microfilariae
Text: as §1, §4, §5

M. tuberculosis FtsZ = M. tuberculosis FtsZ (Mycobacterium tuberculosis, UniProt P9WN95); conditions: cited from earlier work
Chain of M. tuberculosis FtsZ (P9WN95 whole entry): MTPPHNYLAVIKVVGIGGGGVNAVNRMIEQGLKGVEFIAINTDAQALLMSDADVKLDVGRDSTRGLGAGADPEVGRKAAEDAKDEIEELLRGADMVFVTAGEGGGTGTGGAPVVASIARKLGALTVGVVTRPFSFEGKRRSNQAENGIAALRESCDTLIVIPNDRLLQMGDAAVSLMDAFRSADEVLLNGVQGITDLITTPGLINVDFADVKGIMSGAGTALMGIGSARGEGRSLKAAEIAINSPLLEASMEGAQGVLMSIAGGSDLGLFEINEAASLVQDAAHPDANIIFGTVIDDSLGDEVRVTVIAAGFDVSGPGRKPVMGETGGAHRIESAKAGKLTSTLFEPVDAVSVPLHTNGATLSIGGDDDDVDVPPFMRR

[3] = tested on: Wolbachia-infected JW18 cells; test: High-throughput screen for compounds reducing Wolbachia infection of JW18 cells; type: cell-based, Drosophila; conditions: 100 uM per well, 5-day incubation at 25 C, 3 replicates
Method: Cells were plated in 384-well, clear bottom plates (Griener Bio-one) pre-coated with 0.5 mg/mL Concanavalin A. JW18 cells were added to 22 columns, and JW18TET cells were added to the remaining 2 columns at a dilution of 6500 cells per well. After the cells adhered to the plates, compounds were transferred into 20 columns of JW18 cells in the center of the plate using a Janus MDT pin tool. The final concentration of compound was 100 uM per well. All treatments were distributed into 3 plate replicates.
After a 5-day incubation with the compounds at 25 C, the cells were prepared for imaging. Cells were fixed for 20 minutes in 4% formaldehyde and rinsed with PBS using an automated BioTek liquid handler. All staining solutions were administered using a Multidrop robot, with extensive rinsing between treatments. The primary antibody, mouse anti histone (MAB052, Millipore), was used at 1:1250 in PBS/0.1% Triton. Secondary antibody goat anti-mouse Alexa 594 (Invitrogen) was used at 1:1250. DAPI was used as a saturated solution, diluted to a final concentration of 1:40. After staining, PBS+Azide was added to all wells of the plates.
Stained treatment plates were imaged using the MetaExpress Micro system (Molecular Devices, Sunnyvale Calif.). 10 images were acquired per well at 40× magnification. These images were next analyzed using customized journaling software provided by Molecular Devices. The journal first masks any areas where clumps of cells are detected, based upon intensity of the Jupiter-GFP. The boundaries of the remaining cells and their nuclei are recognized based upon the Jupiter-GFP and anti-histone stains. A mask is applied to the nuclei, to obscure the hi stone and DAPI signal from those areas. A threshold for DAPI fluorescence detection is set to detect as much Wolbachia as possible in JW18 control cells while minimizing detection of background DAPI signal in JW18TET control cells. Then this cytoplasmic DAPI level, read to indicate Wolbachia, is scored in the cytoplasm of individual cells to determine whether each cell is infected with Wolbachia. The cutoff value distinguishing “infected” from “uninfected” cells is 4000-5000 fluorescence units per cell.
A spreadsheet from the journal indicates the quantity of Wolbachia-infected cells versus total cells measured in each well. A Z′ factor is calculated for each plate based upon the average frequency of cell infection for JW18 and JW18TET control cells. […] An initial hit range is calculated to lie between the JW18 average infection frequency−3 standard deviations, and the average JW18TET infection frequency+3 standard deviations. To further refine identification of hits, we also calculated an average infection frequency for all JW18 cells on the plate (treated or not), as most treatment wells are expected to be indistinguishable from untreated controls. Wells are that lie within 3 standard deviations of the mean are exluded, and remaining wells are classified as hits within that replicate. Hit wells that are identified in at least 2 out of 3 replicates are considered to be finalized hits.
In this screen, 3081 compounds froth the National Cancer Institute were used. […] Cells were incubated for 5 days with each compound, then fixed, stained, and imaged using automated robotics (FIG. 2). Customized analysis software was used to compare the images from compound-treated wells to the control cells to assay for significant changes in the quantity of Wolbachia-infected cells. All treatment plates were run in triplicate.

Streptococcus pyrogenes = conditions: prior screen; cited from earlier work

CCCS(=O)(=O)c1ccc2nc(NC(=O)OC)[nH]c2c1 [Albendazole sulfone]
oocyte microtubule structure [1]: fibrillar microtubule arrays | Wolbachia per oocyte (Wolbachia): 150+/−13 Wolbachia per oocyte | potency as disrupter of beta-tubulin (beta-tubulin): far less potent disrupter of beta-tubulin than Albendazole sulfoxide | oocytes with posterior Wolbachia localization [2]: 93% | effect on Wolbachia FtsZ (Wolbachia FtsZ): FtsZ was also disrupted in most | effect on Brugia host microtubules (B. malayi microtubules): widespread disruption of B. malayi microtubules

CCC[S+]([O-])c1ccc2[nH]c(NC(=O)OC)nc2c1 (stereo not drawn) [Albendazole sulfoxide]
Wolbachia per oocyte (Wolbachia): 255+/−27 Wolbachia per oocyte

CCCSc1ccc2nc(NC(=O)OC)[nH]c2c1 [Albendazole]
Wolbachia per oocyte (Wolbachia): 194+/−20 Wolbachia per oocyte | effect on M. tuberculosis FtsZ (M. tuberculosis FtsZ): unaffected

CC[C@@]1(O)C[C@H](O[C@H]2C[C@H](N(C)C)[C@H](O[C@H]3C[C@@H]4O[C@H]5CC(=O)[C@H](C)O[C@H]5O[C@@H]4[C@H](C)O3)[C@H](C)O2)c2c(cc3c(c2O)C(=O)c2c(O)ccc(O)c2C3=O)[C@H]1C(=O)OC [Cinerubin B]
reduction of Wolbachia-infection frequency (screen hit) [3]: hits

COc1cc2c(c(OC)c1OC)-c1ccc(OC)c(=O)cc1[C@@H](NC(C)=O)CC2 [Colchicine, reference compound]
oocyte microtubule structure [1]: devoid of filamentous structure | oocytes with posterior Wolbachia localization [2]: 21% | effect on Wolbachia FtsZ (Wolbachia FtsZ): FtsZ remained concentrated near Wolbachia DNA | effect on Brugia host microtubules (B. malayi microtubules): severely disrupted host microtubules

C[C@H]1c2cccc(O)c2C(=O)C2=C(O)[C@]3(O)C(=O)C(C(N)=O)=C(O)[C@@H](N(C)C)[C@@H]3[C@@H](O)[C@@H]21 [Doxycycline]
Wolbachia per oocyte (Wolbachia): 126+/−11 Wolbachia per oocyte

COC1=C(C)C(=O)C2=C(C1=O)[C@H](COC(N)=O)[C@@]1(O)[C@@H]3[C@H](CN21)N3C (stereo partly drawn) [Mitomycin B]
reduction of Wolbachia-infection frequency (screen hit) [3]: hits

CCN1/C(=C/C(C)=C/c2sc3ccccc3[n+]2CC)Sc2ccccc21.[I-] [NSC96932]
antibacterial activity (Streptococcus pyrogenes): exert antibacterial activity | reduction of Wolbachia-infection frequency (screen hit) [3]: hits

O=[N+]([O-])/C=C/c1cc2ccccc2[nH]1 [NSC150982]
reduction of Wolbachia-infection frequency (screen hit) [3]: anti-Wolbachia

CN1CCN(c2ccc([N+](=O)[O-])c3no[n+]([O-])c23)CC1 [NSC207895]
reduction of Wolbachia-infection frequency (screen hit) [3]: hits

O=C(CSc1nc2ccccc2s1)c1sc2sc3ccccc3[n+]2c1O [NSC339601]
reduction of Wolbachia-infection frequency (screen hit) [3]: anti-Wolbachia
